{"source": "patent US12534457B2", "about": "“Heteroaryl derivative compounds, and uses thereof” (Voronoi Inc., priority 2021, dated 2026)", "key": {"[1]": {"target": "T1, EGFR (L747S) (Homo sapiens, UniProt P00533, L747S)", "T1 construct": "purchased Reaction Biology", "assay": "EGFR-family mutant enzyme activity (Reaction Biology)", "format": "biochemical"}, "[2]": {"target": "T2, EGFR (d746-750/C797A) (Homo sapiens, UniProt P00533, C797A/DEL746-750)", "T2 construct": "purchased Reaction Biology", "assay": "EGFR-family mutant enzyme activity (Reaction Biology)", "format": "biochemical"}, "[3]": {"target": "T3, EGFR (d746-750) (Homo sapiens, UniProt P00533, DEL746-750)", "T3 construct": "purchased Reaction Biology", "assay": "EGFR-family mutant enzyme activity (Reaction Biology)", "format": "biochemical"}, "[4]": {"target": "T4, EGFR (G719C) (Homo sapiens, UniProt P00533, G719C)", "T4 construct": "purchased Reaction Biology", "assay": "EGFR-family mutant enzyme activity (Reaction Biology)", "format": "biochemical"}, "[5]": {"target": "T5, EGFR (d746-750/C797S) (Homo sapiens, UniProt P00533, C797S/DEL746-750)", "T5 construct": "purchased Reaction Biology", "T5 sequence (P00533 with tags, fused parts or gaps DEL746-750/C797S limits assumed)": "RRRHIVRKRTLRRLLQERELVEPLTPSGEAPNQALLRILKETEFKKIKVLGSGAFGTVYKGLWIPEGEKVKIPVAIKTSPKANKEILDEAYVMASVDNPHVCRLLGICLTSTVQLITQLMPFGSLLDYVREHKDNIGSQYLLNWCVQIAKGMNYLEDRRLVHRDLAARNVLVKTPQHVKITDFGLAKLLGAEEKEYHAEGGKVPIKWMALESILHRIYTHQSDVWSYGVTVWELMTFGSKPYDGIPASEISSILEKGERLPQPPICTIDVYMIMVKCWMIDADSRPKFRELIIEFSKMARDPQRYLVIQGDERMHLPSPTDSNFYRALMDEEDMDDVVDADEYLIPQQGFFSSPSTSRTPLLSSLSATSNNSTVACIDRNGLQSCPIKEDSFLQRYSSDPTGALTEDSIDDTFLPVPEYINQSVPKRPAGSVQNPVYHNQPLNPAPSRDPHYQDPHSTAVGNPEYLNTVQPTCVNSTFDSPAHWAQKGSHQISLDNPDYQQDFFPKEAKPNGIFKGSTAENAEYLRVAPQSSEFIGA", "assay": "EGFR-family mutant enzyme activity (Reaction Biology)", "format": "biochemical"}, "[6]": {"test_system": "Ba/F3 G719A (EGFR mutation)", "assay": "Proliferation inhibitory activity, Ba/F3 cells expressing EGFR G719A", "format": "cell-based", "conditions": "Mus musculus, BaF3, 72 hours, CellTiter-Glo", "method": "(§1) The following experiments were performed to evaluate the inhibitory activity of the compounds according to the present disclosure on Ba/F3 proliferation expressing EGFR C797S, L861Q, G719A, S768I, L718Q, and/or G724S mutations.\n(§2) For Ba/F3 cells, RPMI-1640 containing 10% FBS and 5 ng/ml IL-3 (R&D Systems) was used. Transduced Ba/F3 cells were cultured after adding 1 μg/ml puromycin (Invitrogen) to the same medium.\n(§3) At 24 hours before treatment with the compounds, 3000 to 5000 cells were aliquoted into each well of a white clear bottom 96 well plate (Corning). The compounds were diluted in dimethyl sulfoxide (3 times dilution, 12 concentrations in total), and injected in an amount of 1 μl so that the final concentration was 0.2 nM to 5 uM. For measurement of living cells, after 72 hours of compound treatment, the cells were stored at room temperature for 10 min using CellTiter-Glo luminescentcell-viability reagent (Promega), and then luminescence intensity was measured using a reader (SynergyNeo, Biotek). Each test was repeated three times. Result values were calculated as the cell growth rate (%) compared to the control. The graphs were created using GraphPad Prism version 8.3.0 program and the GI50 values were calculated."}, "[7]": {"test_system": "Ba/F3 S768I (EGFR mutation)", "assay": "Proliferation inhibitory activity, Ba/F3 cells expressing EGFR S768I", "format": "cell-based", "conditions": "Mus musculus, BaF3, 72 hours, CellTiter-Glo", "method": "as §1, §2, §3"}, "[8]": {"target": "T6, EGFR (L792F/L858R) (Homo sapiens, UniProt P00533, L792F/L858R)", "T6 construct": "purchased Reaction Biology", "assay": "EGFR-family mutant enzyme activity (Reaction Biology)", "format": "biochemical"}, "[9]": {"target": "T7, ERBB4/HER4 (Homo sapiens, UniProt Q15303)", "T7 construct": "purchased Reaction Biology", "assay": "EGFR-family mutant enzyme activity (Reaction Biology)", "format": "biochemical"}, "[10]": {"test_system": "Ba/F3 G724S (EGFR mutation)", "assay": "Proliferation inhibitory activity, Ba/F3 cells expressing EGFR G724S", "format": "cell-based", "conditions": "Mus musculus, BaF3, 72 hours, CellTiter-Glo", "method": "as §1, §2, §3"}, "[11]": {"target": "T8, EGFR (G719D) (Homo sapiens, UniProt P00533, G719D)", "T8 construct": "purchased Reaction Biology", "assay": "EGFR-family mutant enzyme activity (Reaction Biology)", "format": "biochemical"}, "[12]": {"test_system": "Ba/F3 L861Q (EGFR mutation)", "assay": "Proliferation inhibitory activity, Ba/F3 cells expressing EGFR L861Q", "format": "cell-based", "conditions": "Mus musculus, BaF3, 72 hours, CellTiter-Glo", "method": "as §1, §2, §3"}, "[13]": {"target": "T9, EGFR (L861Q) (Homo sapiens, UniProt P00533, L861Q)", "T9 construct": "purchased Reaction Biology", "assay": "EGFR-family mutant enzyme activity (Reaction Biology)", "format": "biochemical"}, "[14]": {"test_system": "Ba/F3 cells expressing EGFR Del19/C797S (EGFR DC)", "assay": "Proliferation inhibitory activity, Ba/F3 cells expressing EGFR Del19/C797S (CellTiter-Glo)", "format": "cell-based", "conditions": "Mus musculus, BaF3, 72 hours of compound treatment", "outline": "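Viability after 72 h of compound exposure was measured by luminescence (CellTiter-Glo) in Ba/F3 lines transduced with mutant EGFR. Final concentrations spanned 0.2 nM–5 μM over 12 threefold steps. Growth relative to untreated control gave GI50 values; each test was run three times.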"}, "[15]": {"target": "T10, EGFR (D761Y) (Homo sapiens, UniProt P00533, D761Y)", "T10 construct": "purchased Reaction Biology", "assay": "EGFR-family mutant enzyme activity (Reaction Biology)", "format": "biochemical"}, "[16]": {"target": "T11, EGFR (L792F) (Homo sapiens, UniProt P00533, L792F)", "T11 construct": "purchased Reaction Biology", "T11 sequence (P00533 25-1210 L792F)": "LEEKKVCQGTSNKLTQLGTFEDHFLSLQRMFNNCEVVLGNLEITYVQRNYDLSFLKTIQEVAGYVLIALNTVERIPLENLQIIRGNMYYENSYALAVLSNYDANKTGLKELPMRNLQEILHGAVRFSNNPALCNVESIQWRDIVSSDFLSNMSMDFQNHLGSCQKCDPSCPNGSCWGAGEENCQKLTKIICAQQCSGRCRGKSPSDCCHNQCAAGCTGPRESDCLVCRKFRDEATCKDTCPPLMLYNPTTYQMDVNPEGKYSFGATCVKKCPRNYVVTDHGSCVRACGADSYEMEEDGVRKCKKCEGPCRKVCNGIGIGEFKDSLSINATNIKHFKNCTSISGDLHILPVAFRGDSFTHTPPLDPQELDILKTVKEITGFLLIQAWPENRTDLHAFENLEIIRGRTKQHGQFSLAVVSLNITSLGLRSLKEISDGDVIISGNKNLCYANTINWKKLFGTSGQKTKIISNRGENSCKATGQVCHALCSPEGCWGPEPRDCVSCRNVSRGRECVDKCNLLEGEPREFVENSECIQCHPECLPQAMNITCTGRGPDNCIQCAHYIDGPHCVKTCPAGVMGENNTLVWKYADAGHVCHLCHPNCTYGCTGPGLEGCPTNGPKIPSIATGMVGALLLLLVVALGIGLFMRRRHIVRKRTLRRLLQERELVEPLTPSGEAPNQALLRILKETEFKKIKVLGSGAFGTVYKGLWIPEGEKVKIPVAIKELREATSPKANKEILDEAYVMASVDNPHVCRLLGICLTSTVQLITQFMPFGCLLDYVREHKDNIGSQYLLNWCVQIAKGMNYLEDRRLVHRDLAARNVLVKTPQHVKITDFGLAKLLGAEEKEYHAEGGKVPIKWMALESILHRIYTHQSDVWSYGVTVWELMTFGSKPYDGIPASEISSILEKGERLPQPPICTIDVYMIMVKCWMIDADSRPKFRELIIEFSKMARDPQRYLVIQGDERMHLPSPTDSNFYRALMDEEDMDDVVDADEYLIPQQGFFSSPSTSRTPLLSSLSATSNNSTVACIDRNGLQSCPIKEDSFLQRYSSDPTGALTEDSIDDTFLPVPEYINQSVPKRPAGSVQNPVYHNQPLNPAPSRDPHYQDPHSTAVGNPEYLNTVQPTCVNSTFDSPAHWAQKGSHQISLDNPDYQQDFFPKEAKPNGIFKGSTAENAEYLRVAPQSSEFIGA", "assay": "EGFR-family mutant enzyme activity (Reaction Biology)", "format": "biochemical"}, "[17]": {"target": "T12, ERBB2/HER2 (Homo sapiens, UniProt P04626)", "T12 construct": "purchased Reaction Biology", "assay": "EGFR-family mutant enzyme activity (Reaction Biology)", "format": "biochemical"}, "[18]": {"target": "T13, EGFR (L718Q) (Homo sapiens, UniProt P00533, L718Q)", "T13 construct": "purchased Reaction Biology", "T13 sequence (P00533 25-1210 L718Q)": "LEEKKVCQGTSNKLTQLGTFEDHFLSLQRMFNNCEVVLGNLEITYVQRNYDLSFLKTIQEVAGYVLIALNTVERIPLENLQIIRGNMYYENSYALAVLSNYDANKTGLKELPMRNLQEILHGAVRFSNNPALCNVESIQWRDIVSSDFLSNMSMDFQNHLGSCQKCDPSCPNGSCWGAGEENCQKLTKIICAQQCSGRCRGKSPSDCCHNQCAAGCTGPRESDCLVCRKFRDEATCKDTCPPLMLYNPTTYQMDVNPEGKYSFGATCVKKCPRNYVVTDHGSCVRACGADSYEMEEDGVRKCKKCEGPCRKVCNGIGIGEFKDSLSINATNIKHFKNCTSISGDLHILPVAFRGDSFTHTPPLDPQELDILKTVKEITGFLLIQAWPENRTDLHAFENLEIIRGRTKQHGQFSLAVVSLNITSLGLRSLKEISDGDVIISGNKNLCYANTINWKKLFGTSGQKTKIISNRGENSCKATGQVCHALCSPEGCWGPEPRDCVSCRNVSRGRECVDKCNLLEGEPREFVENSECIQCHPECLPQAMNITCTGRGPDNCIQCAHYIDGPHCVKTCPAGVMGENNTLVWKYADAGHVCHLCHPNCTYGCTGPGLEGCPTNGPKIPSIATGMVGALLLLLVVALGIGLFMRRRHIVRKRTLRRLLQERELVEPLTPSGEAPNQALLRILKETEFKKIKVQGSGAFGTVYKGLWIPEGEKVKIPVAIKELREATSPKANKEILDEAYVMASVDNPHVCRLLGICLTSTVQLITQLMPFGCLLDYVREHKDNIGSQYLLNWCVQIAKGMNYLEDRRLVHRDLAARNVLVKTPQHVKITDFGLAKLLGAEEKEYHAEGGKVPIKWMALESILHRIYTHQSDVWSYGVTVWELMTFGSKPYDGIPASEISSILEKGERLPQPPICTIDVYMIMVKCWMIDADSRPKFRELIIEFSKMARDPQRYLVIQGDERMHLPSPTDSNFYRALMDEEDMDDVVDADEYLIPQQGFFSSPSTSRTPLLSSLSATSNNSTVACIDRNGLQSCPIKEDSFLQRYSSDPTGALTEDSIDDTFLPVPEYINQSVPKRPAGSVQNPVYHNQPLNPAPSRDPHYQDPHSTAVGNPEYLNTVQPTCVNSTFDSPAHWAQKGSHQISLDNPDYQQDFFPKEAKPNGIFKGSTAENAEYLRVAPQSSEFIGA", "assay": "EGFR-family mutant enzyme activity (Reaction Biology)", "format": "biochemical"}, "[19]": {"target": "T14, EGFR (d746-750/T790M/C797S) (Homo sapiens, UniProt P00533, C797S/DEL746-750/T790M)", "T14 construct": "purchased Reaction Biology", "T14 sequence (P00533 with tags, fused parts or gaps DEL746-750/T790M/C797S limits assumed)": "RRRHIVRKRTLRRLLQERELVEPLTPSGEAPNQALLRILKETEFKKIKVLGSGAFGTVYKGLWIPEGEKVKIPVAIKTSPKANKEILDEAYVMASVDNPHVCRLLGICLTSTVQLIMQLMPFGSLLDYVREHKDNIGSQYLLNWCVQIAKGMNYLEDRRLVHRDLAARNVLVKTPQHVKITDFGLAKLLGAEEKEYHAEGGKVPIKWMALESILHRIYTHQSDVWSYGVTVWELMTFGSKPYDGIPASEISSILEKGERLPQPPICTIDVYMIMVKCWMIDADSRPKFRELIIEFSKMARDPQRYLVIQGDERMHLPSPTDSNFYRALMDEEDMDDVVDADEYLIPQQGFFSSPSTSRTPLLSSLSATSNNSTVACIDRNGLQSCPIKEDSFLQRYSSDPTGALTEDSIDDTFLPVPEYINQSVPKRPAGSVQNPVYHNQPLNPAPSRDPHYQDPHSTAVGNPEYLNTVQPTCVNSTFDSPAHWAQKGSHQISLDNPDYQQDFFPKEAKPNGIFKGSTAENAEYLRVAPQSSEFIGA", "assay": "EGFR-family mutant enzyme activity (Reaction Biology)", "format": "biochemical"}, "[20]": {"target": "T15, EGFR (G719S) (Homo sapiens, UniProt P00533, G719S)", "T15 construct": "purchased Reaction Biology", "T15 sequence (P00533 25-1210 G719S)": "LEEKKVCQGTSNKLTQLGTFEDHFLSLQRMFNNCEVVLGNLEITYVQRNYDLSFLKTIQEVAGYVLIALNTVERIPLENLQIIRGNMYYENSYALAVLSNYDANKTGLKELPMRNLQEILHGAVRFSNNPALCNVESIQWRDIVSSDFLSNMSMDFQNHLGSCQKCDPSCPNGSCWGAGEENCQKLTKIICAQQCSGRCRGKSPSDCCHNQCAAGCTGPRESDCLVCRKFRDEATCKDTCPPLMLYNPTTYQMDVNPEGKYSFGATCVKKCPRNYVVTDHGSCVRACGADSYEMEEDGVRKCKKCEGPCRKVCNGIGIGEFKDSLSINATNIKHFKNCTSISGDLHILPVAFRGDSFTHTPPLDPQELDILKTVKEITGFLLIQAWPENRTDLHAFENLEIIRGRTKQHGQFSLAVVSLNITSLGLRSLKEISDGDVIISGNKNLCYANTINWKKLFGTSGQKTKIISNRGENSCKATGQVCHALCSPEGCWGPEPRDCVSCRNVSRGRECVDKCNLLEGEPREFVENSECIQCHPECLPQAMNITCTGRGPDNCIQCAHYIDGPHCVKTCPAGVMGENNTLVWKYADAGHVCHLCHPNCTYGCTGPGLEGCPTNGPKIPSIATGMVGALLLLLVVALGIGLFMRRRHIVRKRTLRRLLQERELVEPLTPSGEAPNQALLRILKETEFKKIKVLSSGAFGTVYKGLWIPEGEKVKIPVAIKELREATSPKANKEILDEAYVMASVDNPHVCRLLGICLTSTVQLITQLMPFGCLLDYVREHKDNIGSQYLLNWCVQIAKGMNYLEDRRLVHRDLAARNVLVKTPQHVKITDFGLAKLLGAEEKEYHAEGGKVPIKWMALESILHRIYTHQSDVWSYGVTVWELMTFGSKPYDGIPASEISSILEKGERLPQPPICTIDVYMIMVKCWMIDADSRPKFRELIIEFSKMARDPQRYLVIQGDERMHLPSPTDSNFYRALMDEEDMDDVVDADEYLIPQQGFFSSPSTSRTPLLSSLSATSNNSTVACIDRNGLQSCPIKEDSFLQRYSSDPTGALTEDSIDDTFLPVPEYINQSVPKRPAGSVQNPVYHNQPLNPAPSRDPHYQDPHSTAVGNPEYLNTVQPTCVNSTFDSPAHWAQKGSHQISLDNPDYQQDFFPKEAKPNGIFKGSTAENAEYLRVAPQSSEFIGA", "assay": "EGFR-family mutant enzyme activity (Reaction Biology)", "format": "biochemical"}, "[21]": {"test_system": "Ba/F3 L718Q (EGFR mutation)", "assay": "Proliferation inhibitory activity, Ba/F3 cells expressing EGFR L718Q", "format": "cell-based", "conditions": "Mus musculus, BaF3, 72 hours, CellTiter-Glo", "method": "as §1, §2, §3"}}, "data": [{"smiles": "COc1cc(N2CCC(N3CCN(C)CC3)CC2)ccc1Nc1cc(N2OCC[C@@H]2c2ccc(F)cc2F)ncn1", "note": "[Example 34, (R)-6-(3-(2,4-difluorophenyl)isoxazolidin-2-yl)-N-(2-methoxy-4-(4-(4-methylpiperazin-1-yl)piperidin-1-yl)phenyl)pyrimidin-4-amine]", "values": [{"measurement": "IC50", "setting": "[1]", "value": "< 0.5", "unit": "nM"}, {"measurement": "IC50", "setting": "[2]", "value": 3.5, "unit": "nM"}, {"measurement": "IC50", "setting": "[3]", "value": 8, "unit": "nM"}, {"measurement": "IC50", "setting": "[4]", "value": 0.5, "unit": "nM"}, {"measurement": "IC50", "setting": "[5]", "value": "< 0.5", "unit": "nM"}, {"measurement": "GI50", "setting": "[6]", "value": "< 50", "unit": "nM"}, {"measurement": "GI50", "setting": "[7]", "value": "50 to 500", "unit": "nM"}, {"measurement": "IC50", "setting": "[8]", "value": 78.1, "unit": "nM"}, {"measurement": "IC50", "setting": "[9]", "value": 41.7, "unit": "nM"}, {"measurement": "GI50", "setting": "[10]", "value": "< 50", "unit": "nM"}, {"measurement": "IC50", "setting": "[11]", "value": "< 0.5", "unit": "nM"}, {"measurement": "GI50", "setting": "[12]", "value": "50 to 500", "unit": "nM"}, {"measurement": "IC50", "setting": "[13]", "value": "< 0.5", "unit": "nM"}, {"measurement": "GI50", "setting": "[14]", "value": "< 50", "unit": "nM"}, {"measurement": "IC50", "setting": "[15]", "value": "< 0.5", "unit": "nM"}, {"measurement": "IC50", "setting": "[16]", "value": 8.7, "unit": "nM"}, {"measurement": "IC50", "setting": "[17]", "value": 5.3, "unit": "nM"}, {"measurement": "IC50", "setting": "[18]", "value": 49.8, "unit": "nM"}, {"measurement": "IC50", "setting": "[19]", "value": 60.5, "unit": "nM"}, {"measurement": "IC50", "setting": "[20]", "value": 2.7, "unit": "nM"}, {"measurement": "GI50", "setting": "[21]", "value": "50 to 500", "unit": "nM"}]}]}
